In patent US20230013227A1, “ARYL-ANILINE AND HETEROARYL-ANILINE COMPOUNDS FOR TREATMENT OF BIRTHMARKS” (NFlection Therapeutics, Inc., priority 2018, published 2023):
Read-outs that look alike come from different tables or passages of the source.

What was measured:
[1] = target: T1, MAP2K1 (MEK1) (Homo sapiens, UniProt Q02750); test: MEK Inhibition Assay-2 (Example 3): Z'-LYTE biochemical assay; details: Table 6; procedure of Example 3; read-out: IC50 against MEK1
T1 construct: purchased ThermoFisher
Experimental: MEK1 inhibitory activity of compounds were tested using the following procedure (protocol available at thermofisher.com/content/dam/LifeTech/migration/files/drug-discovery/pdfs.par.60256.file.dat/20130430%20ssbk%20customer%20protocol%20and%20assay%20conditions.pdf). The Z′-LYTE biochemical assay (ThermoFisher) employs a fluorescence-based, coupled-enzyme format and is based on the differential sensitivity of phosphorylated and non-phosphorylated peptides to proteolytic cleavage.
Test compounds in 100% DMSO were screened in 1% DMSO (final) in the well. For 10 point titrations, 3-fold serial dilutions are conducted from the starting concentration of 30 μM.
After the 1 hour incubation, 5 μL of a 1:1024 dilution of Development Reagent A (available from Invitrogen, catalog no. PV3295) was added.
ATP solutions were diluted to a 4× working concentration in Kinase Buffer (50 mM HEPES pH 7.5, 0.01% BRIJ-35, 10 mM MgCl2, 1 mM EGTA). ATP Km apparent was previously determined using a Z′-LYTE assay. The Development Reagent was diluted in Development Buffer (available from Invitrogen, catalog no. P3127).
Assay Protocol: 2.5 μL of 4× test compound or 100 nL of 100× Test Compound plus 2.4 μL Kinase Buffer, 5 μL of the 2× Peptide/Kinase Mixture, 2.5 μL of 4×ATP Solution were added to the plates and placed on a shake plate for 30-seconds. The kinase reaction was allowed to proceed for 60-minute at room temperature, before 5 μL of Development Reagent Solution was added, and the mixture agitated for 30-seconds on a shake plate. The mixture was incubated for 60-minute at room temperature. Fluorescence was measured using a plate reader and the data were analyzed.
This control yielded 100% cleaved peptide in the Development Reaction. The 100% Phosphorylation Control, which consisted of a synthetically phosphorylated peptide of the same sequence as the peptide substrate, was designed to allow for the calculation of percent phosphorylation. This control yielded a very low percentage of cleaved peptide in the Development Reaction. The 0% Phosphorylation and 100% Phosphorylation Controls allow for the calculation of the percent phosphorylation achieved in a specific reaction well.
The minimum emission ratio in a screen was established by the 0% Inhibition Control, which contained active kinase. This control was designed to produce a 10-50% phosphorylated peptide in the Kinase Reaction. Cascade assays may produce up to 70% phosphorylated peptide.
A known inhibitor control standard curve, 10 point titration, was run for each individual kinase on the same plate as the kinase to ensure the kinase was inhibited within an expected IC50 range previously determined.
The following controls are prepared for each concentration of Test Compound assayed. […] The expected value for a non-interfering compound should be 100%. Any value outside of 90% to 110% was flagged. […] The expected value for a non-fluorescence compound should be 0%. Any value >20% was flagged.
The data in Table A was calculated. XLfit from IDBS was used. The dose response curve was curve fit to model number 205 (sigmoidal dose-response model).

[2] = target: T2, MEK1 (Homo sapiens, UniProt Q02750); test: MEK Inhibition Assay-1 (Example 2): 33P-ATP, P81 filter-binding kinase assay; details: Example 2, read-out: Assay 1: biochemical MEK IC50
T2 construct: N-terminal His-tagged recombinant human full length protein; purchased Invitrogen PV3303; host or cells: insect cells
Experimental: The following procedure can be used to measure biochemical activity. MEK1 inhibitory activity of compounds were tested using the following procedure. […] Nat Biotechnoi 2011, 29(11), 1039-45.
• Reaction buffer: 20 mM Hepes (pH 7.5), 10 mM MgCl2, 1 mM EGTA, 0.02% Brij35, 0.02 mg/mL BSA, 0.1 mM Na3VO4, 2 mM DTT, 1% DMSO • Enzyme: MEK1, Invitrogen cat #PV3303 • N-terminal His-tagged recombinant human full length protein, expressed in insect cells. Activated in vitro by RAF1. MW=49.2 kDa, GenBank Accession No. NP_002746. • Substrate: 5 μM ERK2 (K52R), • Kinase-dead mutant, (GenBank Accession No. NM_0011949), aa2-358 with N-terminal His6 tag, MW=43.63 kDa, expressed in E. coli.
The substrate was prepared in freshly prepared Reaction Buffer. The kinase was delivered into the substrate solution and gently mixed. Test compounds were delivered in 100% DMSO into the kinase reaction mixture by Acoustic technology (Echo550; nanoliter range), and incubated for 20 min at room temperature. ^33P-ATP was delivered into the reaction mixture to initiate the reaction. The reaction mixture was incubated for 2 hours at room temperature. Kinase activity was detected by P81 filter-binding method.

[3] = Table 10, compounds of formula (IV)
[4] = Table 7, compounds of formula (I)

T2 sequence (Q02750 whole entry): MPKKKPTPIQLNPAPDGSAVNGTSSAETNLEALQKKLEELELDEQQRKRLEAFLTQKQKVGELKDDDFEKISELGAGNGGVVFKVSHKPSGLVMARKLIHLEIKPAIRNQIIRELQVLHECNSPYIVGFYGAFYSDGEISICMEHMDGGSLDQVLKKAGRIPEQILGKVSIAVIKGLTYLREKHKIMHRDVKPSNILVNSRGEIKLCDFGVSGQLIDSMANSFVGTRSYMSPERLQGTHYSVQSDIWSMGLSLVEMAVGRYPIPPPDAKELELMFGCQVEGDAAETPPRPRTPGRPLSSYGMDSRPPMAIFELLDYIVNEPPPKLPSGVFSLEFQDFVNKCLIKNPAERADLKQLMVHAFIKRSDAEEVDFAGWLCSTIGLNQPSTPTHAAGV
T1 sequence (Q02750 whole entry): as above

| SMILES | IC50 [1] | IC50 [2, 3] | IC50 [2, 4] |
| --- | --- | --- | --- |
| O=C1CCCc2c1sc(Nc1ccc(I)cc1F)c2C(=O)NC[C@@H](O)CO [Compound 4.035] | ≤ 150 nM | – | – |
| N#Cc1ccc(C(=O)NOCC2CC2)c(Nc2ccc(I)cc2F)c1 [Compound 1.012] | 150 to 1500 nM | – | – |
| Cc1cc(I)ccc1Nc1cc(C#N)ccc1C(=O)NOCCO [Compound 1.011] | 150 to 1500 nM | – | – |
| O=C1CCCc2c1sc(Nc1ccc(I)cc1F)c2C(=O)NOCC1CC1 [Compound 4.032] | ≤ 150 nM | ≤ 500 nM | – |
| CC(=O)c1sc(Nc2ccc(I)cc2F)c(C(=O)NOCCO)c1C [Compound 4.013] | 150 to 1500 nM | ≤ 500 nM | – |
| N#Cc1ccc(C(=O)N2CC(O)C2)c(Nc2ccc(I)cc2F)c1 [Compound 1.002] | > 1500 nM | – | – |
| CCONC(=O)c1c(Nc2ccc(I)cc2F)sc(C(C)=O)c1C [Compound 4.022] | – | ≤ 500 nM | – |
| N#Cc1ccc(C(=O)NOCCN)c(Nc2ccc(I)cc2F)c1 [Compound 1.018] | 150 to 1500 nM | – | – |
| CCON1CCc2cncc(Nc3ccc(I)cc3F)c2C1=O [Compound 5.011, 2-ethoxy-8-((2-fluoro-4-iodophenyl)amino)-3,4-dihydro-2,6-naphthyridin-1(2H)-one] | 150 to 1500 nM | – | – |
| O=C1c2c(cncc2Nc2ccc(I)cc2F)CCN1OCCO [Compound 5.010] | 150 to 1500 nM | – | – |
| O=c1c2c(Nc3ccc(I)cc3F)cncc2ccn1C[C@@H](O)CO [Compound 5.001] | ≤ 150 nM | – | – |
| CC(=O)c1sc(Nc2ccc(I)cc2F)c(C(=O)N2CC[C@@H](N)C2)c1C [Compound 4.018] | – | 5000 to 10000 nM | – |
| NCCCn1ccc2cncc(Nc3ccc(I)cc3F)c2c1=O [Compound 5.003] | 150 to 1500 nM | – | – |
| N#Cc1ccc(C(=O)O)c(Nc2ccc(I)cc2F)c1 [Compound 1.001] | 150 to 1500 nM | – | – |
| CC(=O)c1sc(Nc2ccc(I)cc2F)c(C(=O)NC[C@H](O)CO)c1C [Compound 4.014] | 150 to 1500 nM | – | – |
| O=C1CCCc2c1sc(Nc1ccc(I)cc1F)c2C(=O)NOC[C@H](O)CO [Compound 4.030] | ≤ 150 nM | – | – |
| N#Cc1ccc(C(=O)NOCCO)c(Nc2ccc(I)cc2F)c1 [Compound 1.010] | ≤ 150 nM | – | ≤ 150 nM |
| O=c1c2c(Nc3ccc(I)cc3F)cncc2ccn1C[C@H](O)CO [Compound 5.002] | ≤ 150 nM | – | – |
| NCCONC(=O)c1c(Nc2ccc(I)cc2F)sc2c1CCCC2=O [Compound 4.033] | ≤ 150 nM | – | – |
| O=c1c2c(Nc3ccc(I)cc3F)cncc2ccn1OCCO [Compound 5.007] | 150 to 1500 nM | – | – |

| SMILES | IC50 [1] | IC50 [2, 3] | IC50 [2, 4] |
| --- | --- | --- | --- |
| COC(=O)Cn1ccc2cncc(Nc3ccc(I)cc3F)c2c1=O [Compound 5.005] | > 1500 nM | – | – |
| O=C1CCCc2c1sc(Nc1ccc(I)cc1F)c2C(=O)NC[C@H](O)CO [Compound 4.034] | ≤ 150 nM | – | – |
| CC(=O)c1sc(Nc2ccc(I)cc2F)c(C(=O)N[C@@H]2CCCNC2)c1C [Compound 4.016] | – | 500 to 1000 nM | – |
| CC(=O)c1sc(Nc2ccc(I)cc2F)c(C(=O)N[C@@H]2CCNC2)c1C [Compound 4.017] | – | 500 to 1000 nM | – |
| O=c1c2c(Nc3ccc(I)cc3F)cncc2ccn1O [Compound 5.006] | 150 to 1500 nM | – | – |
| COC(=O)CCONC(=O)c1ccc(C#N)cc1Nc1ccc(I)cc1F [Compound 1.022] | > 1500 nM | – | – |
| CC(=O)c1sc(Nc2ccc(I)cc2F)c(C(=O)NC[C@@H](O)CO)c1C [Compound 4.015] | 150 to 1500 nM | – | – |
| CCONC(=O)c1ccc(C#N)cc1Nc1ccc(I)cc1F [Compound 1.008] | 150 to 1500 nM | – | ≤ 150 nM |
| N#Cc1ccc(C(=O)NOCC2CC2)c(Nc2ccc(I)cc2F)c1F [Compound 1.031] | ≤ 150 nM | – | ≤ 150 nM |
| Cc1cc(I)ccc1Nc1cc(C#N)ccc1C(=O)NOCC1CC1 [Compound 1.013] | 150 to 1500 nM | – | – |
| CC(=O)c1sc(Nc2ccc(I)cc2F)c(C(=O)NCC(C)(C)N)c1C [Compound 4.020] | – | 1000 to 5000 nM | – |
| CCCONC(=O)c1ccc(C#N)cc1Nc1ccc(I)cc1F [Compound 1.009] | 150 to 1500 nM | – | 150 to 1500 nM |
| O=C(O)Cn1ccc2cncc(Nc3ccc(I)cc3F)c2c1=O [Compound 5.004] | > 1500 nM | – | – |
| CONC(=O)c1ccc(C#N)cc1Nc1ccc(I)cc1F [Compound 1.007] | 150 to 1500 nM | – | 150 to 1500 nM |
| O=C1NCCc2cncc(Nc3ccc(I)cc3F)c21 [Compound 5.012] | 150 to 1500 nM | – | – |
| CC(=O)c1sc(Nc2ccc(I)cc2F)c(C(=O)NOCC2CC2)c1C [Compound 4.023] | – | ≤ 500 nM | – |
| N#Cc1ccc(C(=O)NO)c(Nc2ccc(I)cc2F)c1 [Compound 1.017] | ≤ 150 nM | – | – |
| N#Cc1ccc(C(=O)NOCCO)c(Nc2ccc(I)cc2F)c1F [Compound 1.030] | ≤ 150 nM | – | ≤ 150 nM |
| CONC(=O)c1c(Nc2ccc(I)cc2F)sc(C(C)=O)c1C [Compound 4.021] | – | 500 to 1000 nM | – |
